What follows are compounds tested against Melanin-concentrating hormone receptor 1 (Homo sapiens, UniProt Q99705) (assay: Binding affinity to MCH1 receptor).
Melanin-concentrating hormone receptor 1, sequence (Q99705 whole entry): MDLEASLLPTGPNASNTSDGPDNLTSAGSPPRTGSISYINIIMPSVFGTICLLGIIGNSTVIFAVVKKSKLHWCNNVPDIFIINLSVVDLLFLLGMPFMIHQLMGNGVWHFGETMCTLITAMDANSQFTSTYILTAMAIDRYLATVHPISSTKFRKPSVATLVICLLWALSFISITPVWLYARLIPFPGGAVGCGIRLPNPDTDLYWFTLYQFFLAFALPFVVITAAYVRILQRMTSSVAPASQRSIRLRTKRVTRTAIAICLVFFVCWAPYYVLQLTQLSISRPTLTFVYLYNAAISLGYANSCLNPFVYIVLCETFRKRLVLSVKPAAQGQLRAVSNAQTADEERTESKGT
For `Cc1ccc(CN2CCC(=Cc3ccc(C(=O)N[C@H](C)c4ccc(Br)cc4)cc3)CC2)c2ccccc12`, the Ki was 1410 nM.
`C[C@@H](NC(=O)c1ccc(CC2CCN(Cc3ccc4c(c3)OCO4)CC2)cc1)c1ccccc1` showed a Ki of 3470 nM.
For `COc1cccc([C@@H](C)NC(=O)c2ccc(CC3CCN(Cc4ccc5c(c4)OCO5)CC3)cc2)c1`, the Ki was 266 nM.
With `C[C@@H](NC(=O)c1ccc(CC2CCN(Cc3ccc4c(c3)OCO4)CC2)cc1)c1ccc(Cl)cc1` the Ki was 108 nM.
Compound `CC[C@@H](NC(=O)c1ccc(CC2CCN(Cc3ccc4c(c3)OC(F)(F)O4)CC2)cc1)c1ccc(I)cc1` has a Ki of 795 nM.
Compound `CC[C@@H](NC(=O)c1ccc(CC2CCN(Cc3ccc4cncnc4c3)CC2)cc1)c1ccc(I)cc1` has a Ki of 30 nM.
In the case of `CC[C@@H](NC(=O)c1ccc(CC2CCN(Cc3ccc4cccnc4c3)CC2)cc1)c1ccc(I)cc1`, the Ki is reported as 5 nM.
`C[C@@H](NC(=O)c1ccc(C=C2CCN(Cc3ccco3)CC2)cc1)c1ccc(Br)cc1` was tested, and the Ki was 15600 nM.
`O=C(N[C@@H]1CCc2ccccc21)c1ccc(CC2CCN(Cc3ccc4c(c3)OCO4)CC2)cc1` was tested, and the Ki was 4680 nM.
Work on `COc1ccccc1[C@@H](C)NC(=O)c1ccc(CC2CCN(Cc3ccc4c(c3)OCO4)CC2)cc1` yielded a Ki of 2060 nM.
`C[C@@H](NC(=O)c1ccc(CC2CCN(Cc3ccc4c(c3)OCO4)CC2)cc1)c1ccc(I)cc1` was tested, and the Ki was 51 nM.
With `Cc1ccc([C@@H](C)NC(=O)c2ccc(CC3CCN(Cc4ccc5c(c4)OCO5)CC3)cc2)cc1` the Ki was 1080 nM.
`CC[C@@H](NC(=O)c1ccc(CC2CCN(Cc3ccc4ccccc4n3)CC2)cc1)c1ccc(I)cc1` gave a Ki of 312 nM.
`C[C@@H](NC(=O)c1ccc(C=C2CCN(Cc3ccccc3)CC2)cc1)c1ccc(Br)cc1` gave a Ki of 2580 nM.
For `C[C@@H](NC(=O)c1ccc(C=C2CCN(CC3CCCCC3)CC2)cc1)c1ccc(Br)cc1`, the Ki was 11800 nM.
With `CC(NC(=O)c1ccc(CC2CCN(Cc3ccc4c(c3)OCO4)CC2)cc1)c1ccccc1` (stereo not drawn) the Ki was 4130 nM.
Compound `Cc1ccccc1CNC(=O)c1ccc(CC2CCN(Cc3ccc4c(c3)OCO4)CC2)cc1` has a Ki of 9330 nM.
In the case of `CCC[C@@H](NC(=O)c1ccc(CC2CCN(Cc3ccc4c(c3)OCO4)CC2)cc1)c1ccc(I)cc1`, the Ki is reported as 191 nM.
`CC[C@@H](NC(=O)c1ccc(CC2CCN(Cc3ccc4nccnc4c3)CC2)cc1)c1ccc(I)cc1` showed a Ki of 40 nM.
Work on `C[C@@H](NC(=O)c1ccc(CN2CCN(Cc3ccc4c(c3)OCO4)CC2)cc1)c1ccc(Br)cc1` yielded a Ki of 1950 nM.
`CC1CN(Cc2ccc3c(c2)OCO3)CCN1Cc1ccc(C(=O)N[C@@H](C)c2ccc(Br)cc2)cc1` (stereo partly drawn) was tested, and the Ki was 4560 nM.
`C[C@@H](NC(=O)c1ccc(CC2CCN(Cc3ccc4c(c3)OCO4)CC2)cc1)C1CCCCC1` was tested, and the Ki was 3570 nM.
Compound `C[C@@H](NC(=O)c1ccc(C=C2CCN(Cc3ccc(-c4ccccc4)cc3)CC2)cc1)c1ccc(Br)cc1` has a Ki of 5110 nM.
`CC(c1ccc(C(=O)N[C@@H](C)c2ccc(Br)cc2)cc1)N1CCN(Cc2ccc3c(c2)OCO3)CC1` (stereo partly drawn) was tested, and the Ki was 2330 nM.
Compound `COc1ccc(CN2CCC(=Cc3ccc(C(=O)N[C@H](C)c4ccc(Br)cc4)cc3)CC2)cc1` has a Ki of 149 nM.
With `O=C(Cc1ccc2c(c1)CCO2)c1ccc(CC2CCN(Cc3ccc4c(c3)OCO4)CC2)cc1` the Ki was 133 nM.
For `CC[C@@H](NC(=O)c1ccc(CC2CCN(Cc3ccc4c(c3)OCO4)CC2)cc1)c1ccc(I)cc1`, the Ki was 20 nM.
Compound `O=C(NCc1ccccc1)c1ccc(CC2CCN(Cc3ccc4c(c3)OCO4)CC2)cc1` has a Ki of 5640 nM.

From ChEMBL document CHEMBL1158402, “Homology modeling of MCH1 receptor and validation by docking/scoring and protein-aligned CoMFA” (Eur J Med Chem, 2009)
